According to patent US9809623B2, “α4β7 peptide monomer and dimer antagonists” (Protagonist Therapeutics, Inc., priority 2014, dated 2017):
Numbered stars: 1 amine (or outer) side, 2 acyl side, 3 side chain; on linkers, the order of the positions; unused ones are H or OH. Bridge positions count the residues as written; N and C are the ends. Square brackets hold non-standard residues; d marks the D form. Peptide text beside a SMILES is read from it. I, II: the chains in the order shown. Phe(4-tBu) = CC(C)(C)c1ccc(C[C@H](N)C(=O)O)cc1; 2Nal = N[C@@H](Cc1ccc2ccccc2c1)C(=O)O; Diglycolyl = O=C(COCC(=O)[*:2])[*:1]; NMeR = CN[C@@H](CCCNC(=N)N)C(=O)O; β3hE = N[C@@H](CCC(=O)O)CC(=O)O; Pen = CC(C)(S)[C@H](N)C(=O)O; dNMeK = CN[C@H](CCCCN)C(=O)O

Assays:
[1] = Cysteine/Cystine Redox Stability Assay; format: physicochemical; conditions: Table 4-C; ORP where half of the oxidized peptide remains
Method: Peptides were diluted to 90 μM by adding 4.545 μl of a 10 mM peptide DMSO stock to 495.45 μl of 100 mM Tris-Cl, pH 7.5. Aliquots of […] were transferred to 8 wells down a column of a 96 well plate. 20 μl of 2.5 mM Cystine in 100 mM Tris-Cl, pH 7.5 was added to each well. Cysteine stock solutions in 100 mM Tris-Cl, pH 7.5 were prepared fresh at the following concentrations: 400 mM, 200 mM, 80 mM, 44 mM, 22 mM, 11 mM, 5.5 mM and blank. At time 0, 25 μl of each cysteine stock solution was added to the 55 μl of cystine/peptide solution, and the mixture was incubated at room temperature for 40 min. The samples were quenched by adding 20 μl of 5M acetic acid and analyzed by reverse phase HPLC. The fraction of oxidized peptide was calculated and plotted against the calculated oxidation reduction potential (ORP) as defined by the Nernst equation. The ORP where half of the oxidized peptide remains is shown below.

Plasma Stability Assay = format: in vitro ADME; conditions: rat, Table 4-C, t1/2
Method: 0.5 mL of rat plasma (one tube per peptide, volume depends on how many time points are to be collected, 50 μL per time point) was added to each well of a 96-well polypropylene plate, and the tubes were incubated in a heated water bath, preset to 37° C. with gentle shaking. 1 μL of 10 mM peptide stock solution was added to each tub, and then 200 μL of Acetonitrile w/0.1% Formic Acid was added to each tube (1:4). Samples were collected at the following time points: 0, 10, 30, 45, 60, 120, 180 mins. When all time points were collected, the plate was centrifuged at 5000 rpm for 5 mins. LCM analysis was performed by pipetting 100 μL of each sample to appropriate well of a 96-well deep plate. 100 μL of an internal standard peptide (1 ug/mL) was added in Mobile Phase A to each well. The plate was vortexed and injected

Intestinal Wash Assay = format: in vitro ADME; parameters: dose or concentration left out as unconfirmed; conditions: rat, rat intestinal wash fluid (small intestine); Table 4-C, t1/2
Method: Intestinal wash assay solution was prepared from rats fasted for at least 6 hours prior. The animals were euthanized and a midline incision was made from the point of the jaw to the pubis. The abdomen and chest were opened by making 2 incisions through the anterior chest wall on either side. Hemostats were used to clamp off both ends of the animal's stomach—where the esophagus meets the stomach and where the stomach meets the duodenum. A hemostat was also used to clamp 2-3 cm down the intestine from where the stomach meets the duodenum.
Intestinal wash assay solution was prepared by separating 20 cm of the small intestine from the body. Once separated 20 cm, the end was clamped with a hemostat and the section cut from the body, leaving the hemostats in place on the removed section. 1 mL of chilled saline was drawn up with a 1 mL syringe. One end of the intestine was held up and the clamp removed. Approximately 2-2.5 cm of the gavage needle was inserted into the intestine, and the saline was slowly injected. The fluid was massaged down the length of the intestine using gloved fingers. The gavage needle was removed and the clamp was replaced on the end of the intestine. The intestine was sat straight and a q-tip was run firmly up and down the length of the outside of the intestine approximately 3-6 times to mix the enzymes with the saline. One end of the intestine was held up and some of the fluid was carefully moved at the top down. The clamp was removed and that end of the intestine was set into a small weigh boat on ice. The other end of the intestine was carefully picked up and held vertically. Gloved fingers were gently run down it to squeeze the fluid into the container. The previous steps saline injection and fluid procurement steps were repeated twice using only 0.5 mL of chilled saline. The sample was pipetted from the weigh boat into a centrifuge tube and placed on ice. All intestinal wash samples were spun down in a cold centrifuge at 12,000×g for 10 minutes. The supernatant from the top of each centrifuged sample was pipetted into cryotubes, and kept on ice until use.
Intestinal wash assays were performed using intestinal wash assay solution prepared as described above. A sufficient amount of rat intestinal wash was thawed. For each sample, 200 uL of rat intestinal wash fluid was pipetted into 1.5 mL Eppendorf tubes (number of tubes for experiment=number of test peptides×N). The tubes were pre-incubated for about 10 minutes in a water bath at 37° C.
Peptide working solutions ([…]) were prepared by combining 2 μl of 10 mM DMSO stock with 128 μl 100 mM Tris pH 7.5.
Peptide quench solvent (50% ACN-50% MeOH-5% Formic Acid)+IS (5 ug/ml; 1 ul of 10 mg/mL IS per 2 mL quench solvent) was prepare and a quench plate prepared and placed on ice. 200 ul of quench solution was added to each well of the quench plate for T=0, 10, 20, 30, 60 and 180 min collection.
For each test sample and a positive control, 30 ul of peptide working solution was added to a tube of intestinal wash fluid. The tube was gently vortexed and 30 ul was immediately removed and quenched in T=0 well of quench plate (pipetted directly into the quench solution). This well was covered tightly to prevent evaporation. 30 ul aliquots were removed at T=10 min, T=20 min, T=30 min, T=60 min, and T=180 min, and quenched. When all time points were collected, the quench plate was centrifuged at 10,000 rpm for 10 minutes. 150 uL of each supernatant was transferred to a polypropylene 96-well collection plate. 300 ul Mobile Phase A was added to each collection, and LC/MS/MS analysis was performed to determine the amount or concentration of peptide remaining in each test sample and positive control.

Compound	Cys/CySS (mV) [1]	half-life at 20 μM (Plasma Stability Assay)	half-life (Intestinal Wash Assay)
CC(=O)N[C@@H]1C(=O)N(C)[C@@H](CCCNC(=N)N)C(=O)N[C@@H](CO)C(=O)N[C@@H](CC(=O)O)C(=O)N[C@@H]([C@@H](C)O)C(=O)N[C@@H](CC(C)C)C(=O)N[C@H](C(=O)N[C@@H](Cc2c[nH]c3ccccc23)C(=O)N[C@@H](CCC(=O)O)C(=O)N[C@H](CCCCNC(=O)COCC(=O)NCCCC[C@@H](NC(=O)[C@H](CCC(=O)O)NC(=O)[C@H](Cc2c[nH]c3ccccc23)NC(=O)[C@H]2NC(=O)[C@H](CC(C)C)NC(=O)[C@H]([C@@H](C)O)NC(=O)[C@H](CC(=O)O)NC(=O)[C@H](CO)NC(=O)[C@H](CCCNC(=N)N)N(C)C(=O)[C@@H](NC(C)=O)C(C)(C)SSC2(C)C)C(N)=O)C(N)=O)C(C)(C)SSC1(C)C [compound 217, (Ac-Pen-N-Me-R-S-D-T-L-Pen-W-E-k-NH2)2-DIG] (I: Ac-[Pen][NMeR]SDTL[Pen]WE[dK]-NH2 / II: Ac-[Pen][NMeR]SDTL[Pen]WE[dK]-NH2; disulfide I:1-I:7, II:1-II:7 (inferred); linker I:10-II:10 via Diglycolyl (inferred))	<−300 mV	> 120 min	> 180 min
CC(=O)N[C@@H]1C(=O)N(C)[C@@H](CCCNC(=N)N)C(=O)N[C@@H](CO)C(=O)N[C@@H](CC(=O)O)C(=O)N[C@@H]([C@@H](C)O)C(=O)N[C@@H](CC(C)C)C(=O)N[C@H](C(=O)N[C@@H](Cc2ccc(C(C)(C)C)cc2)C(=O)N[C@@H](CCC(=O)O)CC(=O)N[C@H](CCCCNC(=O)COCC(=O)NCCCC[C@@H](NC(=O)C[C@H](CCC(=O)O)NC(=O)[C@H](Cc2ccc(C(C)(C)C)cc2)NC(=O)[C@H]2NC(=O)[C@H](CC(C)C)NC(=O)[C@H]([C@@H](C)O)NC(=O)[C@H](CC(=O)O)NC(=O)[C@H](CO)NC(=O)[C@H](CCCNC(=N)N)N(C)C(=O)[C@@H](NC(C)=O)C(C)(C)SSC2(C)C)C(N)=O)C(N)=O)C(C)(C)SSC1(C)C [compound 218, [Ac-Pen-(N-Me-Arg)-Ser-Asp-Thr-Leu-Pen-Phe(4-tBu)-(β-homoGlu)-(D-Lys)-NH2]2-DIG] (I: Ac-[Pen][NMeR]SDTL[Pen][Phe(4-tBu)][β3hE][dK]-NH2 / II: Ac-[Pen][NMeR]SDTL[Pen][Phe(4-tBu)][β3hE][dK]-NH2; disulfide I:1-I:7, II:1-II:7; linker I:10-II:10 via Diglycolyl)	<−300 mV	> 360 min	> 360 min
CC(=O)N[C@@H]1C(=O)N(C)[C@@H](CCCNC(=N)N)C(=O)N[C@@H](CO)C(=O)N[C@@H](CC(=O)O)C(=O)N[C@@H]([C@@H](C)O)C(=O)N[C@@H](CC(C)C)C(=O)N[C@H](C(=O)N[C@@H](Cc2c[nH]c3ccccc23)C(=O)N[C@H](CCCCN)C(N)=O)C(C)(C)SSC1(C)C [compound 208, Ac-Pen-N-Me-R-S-D-T-L-Pen-W-k-NH2] (Ac-[Pen][NMeR]SDTL[Pen]W[dK]-NH2; disulfide 1-7)	<−300 mV	–	–
CC(=O)N[C@@H]1C(=O)N(C)[C@@H](CCCNC(=N)N)C(=O)N[C@@H](CO)C(=O)N[C@@H](CC(=O)O)C(=O)N[C@@H]([C@@H](C)O)C(=O)N[C@@H](CC(C)C)C(=O)N[C@H](C(=O)N[C@@H](Cc2ccc3ccccc3c2)C(=O)N[C@@H](CCC(=O)O)C(=O)N[C@H](CCCCN)C(N)=O)C(C)(C)SSC1(C)C [compound 210, Ac-Pen-N-Me-R-S-D-T-L-Pen-2-Nal-E-k-NH2] (Ac-[Pen][NMeR]SDTL[Pen][2Nal]E[dK]-NH2; disulfide 1-7)	<−300 mV	–	–
CC(=O)N[C@H]1CSSC(C)(C)[C@@H](C(=O)N[C@@H](Cc2c[nH]c3ccccc23)C(=O)N[C@H](CCCCNC(=O)COCC(=O)NCCCC[C@@H](NC(=O)[C@H](Cc2c[nH]c3ccccc23)NC(=O)[C@H]2NC(=O)[C@H](CC(C)C)NC(=O)[C@H]([C@@H](C)O)NC(=O)[C@H](CC(=O)O)NC(=O)[C@H](CO)NC(=O)[C@H](CCCNC(=N)N)N(C)C(=O)[C@@H](NC(C)=O)CSSC2(C)C)C(N)=O)C(N)=O)NC(=O)[C@H](CC(C)C)NC(=O)[C@H]([C@@H](C)O)NC(=O)[C@H](CC(=O)O)NC(=O)[C@H](CO)NC(=O)[C@H](CCCNC(=N)N)N(C)C1=O [compound 204, (Ac-C-N-Me-R-S-D-T-L-Pen-W-k-NH2)2-DIG] (I: Ac-C[NMeR]SDTL[Pen]W[dK]-NH2 / II: Ac-C[NMeR]SDTL[Pen]W[dK]-NH2; disulfide I:1-I:7, II:1-II:7 (inferred); linker I:9-II:9 via Diglycolyl (inferred))	−204 mV	> 360 min	> 180 min
CC(=O)N[C@@H]1C(=O)N[C@@H](CCCNC(=N)N)C(=O)N[C@@H](CO)C(=O)N[C@@H](CC(=O)O)C(=O)N[C@@H]([C@@H](C)O)C(=O)N[C@@H](CC(C)C)C(=O)N[C@H](C(=O)N[C@H](CCCCNC(=O)COCC(=O)NCCCC[C@@H](NC(=O)[C@@H]2CSSC(C)(C)[C@H](NC(C)=O)C(=O)N[C@@H](CCCNC(=N)N)C(=O)N[C@@H](CO)C(=O)N[C@@H](CC(=O)O)C(=O)N[C@@H]([C@@H](C)O)C(=O)N[C@@H](CC(C)C)C(=O)N2)C(N)=O)C(N)=O)CSSC1(C)C [compound 207, (Ac-Pen-R-S-D-T-L-C-k-NH2)2-DIG] (I: Ac-[Pen]RSDTLC[dK]-NH2 / II: Ac-[Pen]RSDTLC[dK]-NH2; disulfide I:1-I:7, II:1-II:7 (inferred); linker I:8-II:8 via Diglycolyl (inferred))	−173 mV	–	< 10 min
CC(=O)N[C@@H]1C(=O)N(C)[C@@H](CCCNC(=N)N)C(=O)N[C@@H](CO)C(=O)N[C@@H](CC(=O)O)C(=O)N[C@@H]([C@@H](C)O)C(=O)N[C@@H](CC(C)C)C(=O)N[C@H](C(=O)N[C@@H](Cc2c[nH]c3ccccc23)C(=O)N[C@@H](CCC(=O)O)C(=O)N(C)[C@H](CCCCNC(=O)COCC(=O)NCCCC[C@H](C(N)=O)N(C)C(=O)[C@H](CCC(=O)O)NC(=O)[C@H](Cc2c[nH]c3ccccc23)NC(=O)[C@H]2NC(=O)[C@H](CC(C)C)NC(=O)[C@H]([C@@H](C)O)NC(=O)[C@H](CC(=O)O)NC(=O)[C@H](CO)NC(=O)[C@H](CCCNC(=N)N)N(C)C(=O)[C@@H](NC(C)=O)C(C)(C)SSC2(C)C)C(N)=O)C(C)(C)SSC1(C)C [compound 214, [Ac-Pen-(N-Me-Arg)-Ser-Asp-Thr-Leu-Pen-Trp-Glu-(N-Me-D-Lys)-NH2]2-DIG] (I: Ac-[Pen][NMeR]SDTL[Pen]WE[dNMeK]-NH2 / II: Ac-[Pen][NMeR]SDTL[Pen]WE[dNMeK]-NH2; disulfide I:1-I:7, II:1-II:7 (inferred); linker I:10-II:10 via Diglycolyl (inferred))	–	> 360 min	> 360 min
